Here are results for three molecules from patent publication US20040146520A1, “Materials and methods relating to immune suppression” (priority 2001, published 2004).

The target in one data set is CD8-associated p56lck (Homo sapiens, UniProt P06239). The following applies: cited from earlier work.
For data set [1], the system named is Flu-specific (MP58-66) CTL. In words: CTL apoptosis induced by peptide/MHC multimeric beads. It counts as cell-based, human. The note with it: IL-2 20 U/ml, anti-CD28 1 μg/ml, z-VAD 10 μM; 12 hrs.
The test system of the next data set is A2+ B cell targets. As to the kind of experiment: Gag-specific CTL assay, apoptosis of peptide-pulsed targets (Annexin-V). The note with it: peptide-pulsed BCL, 12-hour incubation, FIG. 1b.

Where a SMILES comes first, the peptide text is derived from it. The star is where a group is joined. Cbz = O=C(OCc1ccccc1)*; CH2F = FC*

CD8-associated p56lck, sequence (P06239 whole entry): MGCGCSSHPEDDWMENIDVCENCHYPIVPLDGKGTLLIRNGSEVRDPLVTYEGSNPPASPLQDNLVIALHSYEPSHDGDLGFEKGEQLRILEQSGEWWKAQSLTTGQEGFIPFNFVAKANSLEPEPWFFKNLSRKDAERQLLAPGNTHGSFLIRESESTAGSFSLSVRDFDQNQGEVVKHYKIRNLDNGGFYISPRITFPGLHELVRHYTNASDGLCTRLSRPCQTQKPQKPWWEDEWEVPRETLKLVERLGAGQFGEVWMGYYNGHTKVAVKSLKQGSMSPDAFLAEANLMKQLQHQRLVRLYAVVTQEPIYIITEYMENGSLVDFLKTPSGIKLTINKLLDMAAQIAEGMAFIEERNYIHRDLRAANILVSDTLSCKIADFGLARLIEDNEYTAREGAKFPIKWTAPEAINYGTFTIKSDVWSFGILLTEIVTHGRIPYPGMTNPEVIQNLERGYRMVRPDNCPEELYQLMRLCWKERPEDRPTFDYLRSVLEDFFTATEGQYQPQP

Consider `CO[C@H]1[C@@H](OC)C[C@H](C)[C@@H](OC)C2=CC(=O)C=C(NC(=O)/C(C)=C/C=C\[C@H](OC)[C@@H](OC(N)=O)/C(C)=C/[C@@H]1C)C2=O` [herbimycin A], for which the “effect on FasL-mediated cytotoxicity” value at CD8-associated p56lck is given as “little effect”. With `CC(NC(=O)C(NC(=O)OCc1ccccc1)C(C)C)C(=O)NC(CC(=O)O)C(=O)CF` (stereo not drawn) [z-VAD] (Cbz-Val-Ala-Asp-CH2F; configuration not given here), the “effect of added reagent on multimer-induced CTL death” value in data set [1] is reported as “blocked”. For the molecule SLFNTVATL [Mutant 3F], the “target cell death, gag variant peptides” value in the data set with A2+ B cell targets is “sensitising”.
